Assay results published in patent US20190046552A1, “COMPOSITIONS AND METHODS FOR THE TREATMENT OF HCV INFECTION” (priority 2015, published 2019).
pIC50: −log10 of the molar value. Like-named read-outs stand apart in the source and are kept apart here.

Tests used:
[1] = Part A (SAD): plasma PK of Formula (IIa) and its metabolites after a single oral dose of Formula (IIa), fed or fasted; type: in vivo, human; details: for Cmax / AUC(0-t) / Tmax / AUC(0-inf) / half-life: human, in vivo; for Cmax / AUC(0-t) / Tmax: po
Procedure: The study was a Phase 1, two-part, first-in-human study of single (Part A) and multiple (Part B) ascending doses (SAD and MAD) of Formula (IIa) at doses of 100-900 mg given as a monotherapy for up to 7 days. Subjects were enrolled at multiple sites in Australia and New Zealand. For both Parts A and B, the Safety Review Committee (SRC) determined whether dose escalation occurred after review of all safety data and any available PK/PD data. Part A was an open label, randomized SAD study consisting of four cohorts of two subjects each, with one subject randomized to be dosed in the fed state and the other in the fasted state, at doses of 100 mg to 800 mg Formula (IIa). All subjects were given a single dose of Formula (IIa) orally.
(§1) All plasma PK calculations were performed using actual time points calculated relative to the time of last drug administration.
(§2) PK analysis was conducted for all enrolled subjects that received any dose of Formula (IIa) with sufficient plasma sample data to assess PK parameters. […] Data analysis was performed using a validated version of WinNonlin® Enterprise (Version 5.2) software, and summary tables and figures were generated using a validated version of WinNonlin® Autopilot™ (Version 1.1.1) and other reporting tools, including SigmaPlot®.

HCV RNA = assay: Part B (MAD): antiviral response (HCV RNA viral load) in treatment naive subjects with chronic HCV infection; type: in vivo, human
Excerpt: Part B was a blinded, randomized, placebo-controlled MAD study consisting of four cohorts of eight subjects randomized 6:2 to receive Formula (IIa) or placebo. A total of 30 treatment naïve subjects with CHC infection were enrolled in and a total of 29 subjects (22 subjects administered Formula (IIa) and 7 subjects administered placebo) completed Part B of the study. One subject administered placebo withdrew from the study on Day 2. Subjects infected with HCV-1 and HCV-3 genotypes were enrolled, and no subjects infected with HCV-2 participated in the study. To control for the possible effect of the IL28b genotype, the number of subjects with CC alleles was capped at three per cohort.
(§3) The starting dose was determined by the SRC based on review of all safety and any available PK/PD data from Part A. All subjects were dosed in the fasted state with Formula (IIa) daily, from Day 1 until […]. All subjects had nothing by mouth other than water for at least 10 hours prior to daily dosing and for 4 hours thereafter. In Part B, all subjects were administered the study medication orally with approximately 240 mL of water at the same time every day (+/−10 minutes).
A subset of blood samples shown in Table 3 above was used for the PK evaluation of plasma trough concentrations (Table 4). […]

[2] = tested on: HCV replicon cell line AVA5 [sub-genomic (CON1), genotype 1b]; assay: 3-day HCV replicon antiviral assay (blot hybridization of intracellular HCV RNA), alone and with sofosbuvir; type: cell-based; details: Hepatitis C virus, Ava5, 72 h, read-out: IC50 (intracellular HCV RNA)
[3] = Part B (MAD): plasma PK of Formula (IIa) and its metabolites after once-daily oral Formula (IIa) for 7 days, fasted; type: in vivo, human; details: fasted, Day 7, plasma; for Cmin: arithmetic mean (CV %); for Tmin: median (min, max)
Procedure: Part B was a blinded, randomized, placebo-controlled MAD study consisting of four cohorts of eight subjects randomized 6:2 to receive Formula (IIa) or placebo. […] To control for the possible effect of the IL28b genotype, the number of subjects with CC alleles was capped at three per cohort.
as §3
A subset of blood samples shown in Table 3 above was used for the PK evaluation of plasma trough concentrations (Table 4). In addition, blood sample assessment of antiviral response was collected according to the following sampling schedule for Part B (Table 4).
as §1, §2

CO[C@H]1C(OP(=O)(OC[C@H]2O[C@@H](n3cnc4c(N)ncnc43)CC2O)SCOC(=O)OC(C)C)[C@@H](CO)O[C@H]1n1ccc(=O)[nH]c1=O (stereo partly shown) [Formula (IIa)]
Cmax ([1]; 200 mg, single oral 200 mg Formula (IIa), fasted, plasma, N=1): 0.577 ng/mL | AUC(0-t) ([1]; 200 mg, single oral 200 mg Formula (IIa), fasted, plasma, N=1, read-out: AUC0-24): 0.433 ng·h/mL | AUC(0-t) ([1]; 200 mg, single oral 200 mg Formula (IIa), fasted, plasma, N=1, read-out: AUC0-t): 0.289 ng·h/mL | Tmax ([1]; 200 mg, single oral 200 mg Formula (IIa), fasted, plasma, N=1, read-out: Tmax): 1 h | Cmax ([1]; 200 mg, single oral 200 mg Formula (IIa), fed, plasma, N=1): 0.261 ng/mL | AUC(0-t) ([1]; 200 mg, single oral 200 mg Formula (IIa), fed, plasma, N=1, read-out: AUC0-24): 0.131 ng·h/mL | AUC(0-t) ([1]; 200 mg, single oral 200 mg Formula (IIa), fed, plasma, N=1, read-out: AUC0-t): 0.0653 ng·h/mL | Tmax ([1]; 200 mg, single oral 200 mg Formula (IIa), fed, plasma, N=1, read-out: Tmax): 2 h | Cmax ([1]; 400 mg, single oral 400 mg Formula (IIa), fasted, plasma, N=1): 1.16 ng/mL | AUC(0-t) ([1]; 400 mg, single oral 400 mg Formula (IIa), fasted, plasma, N=1, read-out: AUC0-24): 1.37 ng·h/mL | AUC(0-t) ([1]; 400 mg, single oral 400 mg Formula (IIa), fasted, plasma, N=1, read-out: AUC0-t): 1.31 ng·h/mL | Tmax ([1]; 400 mg, single oral 400 mg Formula (IIa), fasted, plasma, N=1, read-out: Tmax): 2.5 h | Cmax ([1]; 400 mg, single oral 400 mg Formula (IIa), fed, plasma, N=1): 0.574 ng/mL | AUC(0-t) ([1]; 400 mg, single oral 400 mg Formula (IIa), fed, plasma, N=1, read-out: AUC0-24): 1.13 ng·h/mL | AUC(0-t) ([1]; 400 mg, single oral 400 mg Formula (IIa), fed, plasma, N=1, read-out: AUC0-t): 1.07 ng·h/mL | Tmax ([1]; 400 mg, single oral 400 mg Formula (IIa), fed, plasma, N=1, read-out: Tmax): 1.5 h | Cmax ([1]; 800 mg, single oral 800 mg Formula (IIa), fasted, plasma, N=1): 0.734 ng/mL | AUC(0-t) ([1]; 800 mg, single oral 800 mg Formula (IIa), fasted, plasma, N=1, read-out: AUC0-24): 0.809 ng·h/mL | AUC(0-t) ([1]; 800 mg, single oral 800 mg Formula (IIa), fasted, plasma, N=1, read-out: AUC0-t): 0.751 ng·h/mL | Tmax ([1]; 800 mg, single oral 800 mg Formula (IIa), fasted, plasma, N=1, read-out: Tmax): 1 h | Cmax ([1]; 800 mg, single oral 800 mg Formula (IIa), fed, plasma, N=1): 0.486 ng/mL | AUC(0-t) ([1]; 800 mg, single oral 800 mg Formula (IIa), fed, plasma, N=1, read-out: AUC0-24): 0.96 ng·h/mL | AUC(0-t) ([1]; 800 mg, single oral 800 mg Formula (IIa), fed, plasma, N=1, read-out: AUC0-t): 0.9 ng·h/mL | Tmax ([1]; 800 mg, single oral 800 mg Formula (IIa), fed, plasma, N=1, read-out: Tmax): 1.5 h | Tmax ([1]; single oral Formula (IIa), subjects dosed under fasted conditions, read-out: Individual Tmax range): 1 to 2.5 h | Tmax ([1]; single oral Formula (IIa), subjects dosed under fed conditions, read-out: Individual Tmax range): 1.5 to 2 h | AUC(0-inf) ([1]; single oral 400 mg Formula (IIa), fed, plasma, N=1): 1.43 ng·h/mL | half-life ([1]; single oral 400 mg Formula (IIa), fed, plasma, N=1, read-out: t1/2 (converted)): 1.16 h | AUC(0-inf) ([1]; single oral 800 mg Formula (IIa), fed, plasma, N=1): 1.39 ng·h/mL | half-life ([1]; single oral 800 mg Formula (IIa), fed, plasma, N=1, read-out: t1/2 (converted)): 1.42 h | half-life ([1]; two fed subjects (400 mg and 800 mg dose cohorts), read-out: half-life (terminal phase), range): 1.16 to 1.42 h | measurable Formula (IIa) concentrations in plasma ([1]; single oral 100 mg Formula (IIa), fasting and fed): no measurable Formula (IIa) concentrations | AUC0-t in the fasted subject higher than the fed subject ([1]; single oral 200 mg Formula (IIa)): 4 fold | peak plasma concentrations in the fasted subjects, times higher compared to the fed subjects ([1]; single oral 400 mg Formula (IIa)): 2.0 times | peak plasma concentrations in the fasted subjects, times higher compared to the fed subjects ([1]; single oral 800 mg Formula (IIa)): 1.5 times | measurable concentrations of Formula (IIa) in plasma ([1]; single oral dose levels of 100 mg and 200 mg): did not produce measurable concentrations | Peak individual viral load drop (HCV RNA; 200 mg Formula (IIa) QD): 1.5 log10 | Peak individual viral load drop (HCV RNA; 400 mg Formula (IIa) QD): 1.9 log10 | pIC50 [2]: 7.50 | Cmin ([3]; 200 mg Formula (IIa) QD oral): 0.00 (NC) ng/ml | Tmin ([3]; 200 mg Formula (IIa) QD oral): 0.00 h | Cmin ([3]; 400 mg Formula (IIa) QD oral): 0.00 (NC)^ ng/ml | Tmin ([3]; 400 mg Formula (IIa) QD oral): 0.00 h
